For orientation: MIC means the lowest concentration found to suppress growth.

Converted amounts (≈) assume the structure as drawn. Read-outs that look alike come from different tables or passages of the source. A value given as a limit tells only on which side of the number the result lay.

The subject of experiment [1] is WT E. coli. The experiment can be described thus: Minimal inhibitory concentration in wild-type E. coli. The experiment is classed as cell-based, Escherichia coli. Particulars: wild-type E. coli, 37° C., 16 hours, read-out: MIC (μM) in WT E. coli. The essentials: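 Broth microdilution: saturated LB overnight culture diluted 1:100 twice, compound serially two-fold diluted across the plate from DMSO stock. Static incubation 16 hours at 37° C, OD600 read; MIC taken as lowest concentration inhibiting growth.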

For experiment [2], the system named is K. pneumoniae 700721. The experiment can be described thus: Minimal inhibitory concentration, K. pneumoniae 700721. The format is cell-based. Particulars: 16 hour minimal inhibitory concentration at 37° C., read-out: MIC (μM) K. pneumoniae 700721. The essentials:
(§1)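 MIC, in µM, taken as the lowest compound concentration preventing growth by OD600 after 16 h static incubation at 37 °C. Compound was twofold serially diluted in bacteria grown overnight in LB, or TSA for S. aureus, and diluted 1:100 twice.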

The subject of experiment [3] is E. coli MC4100. The experiment is described as follows: Minimal inhibitory concentration, E. coli MC4100. Particulars: 16 hour minimal inhibitory concentration at 37° C., read-out: MIC (μM) E. coli MC4100 ara+. The format is cell-based. In a few lines:
as §1

For experiment [4], the system named is S. aureus MW2. The experiment can be described thus: Minimal inhibitory concentration, S. aureus MW2. The experiment is classed as cell-based. Conditions: 16 hour minimal inhibitory concentration at 37° C., read-out: MIC (μM) S. aureus MW2 (MRSA). The essentials: as §1
The test system of experiment [5] is S. aureus RN4220. The experiment can be described thus: Minimal inhibitory concentration, S. aureus RN4220. The format is cell-based. Particulars: 16 hour minimal inhibitory concentration at 37° C., read-out: MIC (μM) S. aureus RN4220. The essentials:
as §1

For experiment [6], the system named is E. cloacae 13047. The experiment is described as follows: Minimal inhibitory concentration, E. cloacae 13047. The format is cell-based. Particulars: 16 hour minimal inhibitory concentration at 37° C., read-out: MIC (μM) E. cloacae 13047. The essentials: as §1
For experiment [7], the system named is E. coli 25922. The experiment can be described thus: Minimal inhibitory concentration, E. coli 25922. Conditions: 16 hour minimal inhibitory concentration at 37° C., read-out: MIC (μM) E. coli 25922. The format is cell-based. The essentials:
as §1

The subject of experiment [8] is A. baumannii 19606. The experiment is described as follows: Minimal inhibitory concentration, A. baumannii 19606. The experiment is classed as cell-based. Conditions: 16 hour minimal inhibitory concentration at 37° C., read-out: MIC (μM) A. baumannii 19606. In a few lines:
as §1

The mark [9] stands for this setting: Staphylococcus aureus, MRSA, 16 h.
[10] abbreviates: Staphylococcus aureus, RN4220, 16 h.
Setting [11] is: Acinetobacter baumannii, 19606, 16 h.

On to `CO[C@@H]1[C@@H](OC(N)=O)[C@@H](O)[C@H](Oc2ccc3c(O)c(NC(=O)c4cccc(Cc5ccccc5)c4)c(=O)oc3c2C)OC1(C)C` [Compound 69], for which the MIC in experiment [1] is on record as 89 µM (≈ 55.1 µg/mL); in experiment [2], greater than 100 µM; in experiment [3], 89 µM (≈ 55.1 µg/mL); in experiment [4] it was 3 µM (≈ 1.86 µg/mL); in experiment [5] it was 5 µM (≈ 3.09 µg/mL); in experiment [6] it was greater than 100 µM. In addition, the MIC in experiment [7] is recorded as 81 µM (≈ 50.1 µg/mL); in experiment [8] it was greater than 50 µM.

Take `CO[C@@H]1[C@@H](OC(N)=O)[C@@H](O)[C@H](Oc2ccc3c(O)c(NC(=O)c4cccc(-c5cccc(O)c5O)c4)c(=O)oc3c2C)OC1(C)C` [Compound 99]: the MIC is listed as greater than 300 µM in experiment [1]; greater than 100 µM in experiment [2]; greater than 200 µM in experiment [3]; 79 µM (≈ 50.3 µg/mL) in experiment [4]; 79 µM (≈ 50.3 µg/mL) in experiment [5]; greater than 100 µM in experiment [6]. In addition, the MIC in experiment [7] is given as greater than 200 µM; in experiment [8], greater than 50 µM.

For `CO[C@@H]1[C@@H](OC(N)=O)[C@@H](O)[C@H](Oc2ccc3c(O)c(NC(=O)c4cc(-c5ccccc5)ccc4N)c(=O)oc3c2C)OC1(C)C` [Compound 85], the MIC in experiment [1] was 59 µM (≈ 36.6 µg/mL); in experiment [2], greater than 100 µM; in experiment [3] it was 59 µM (≈ 36.6 µg/mL); in experiment [4] it was 2.5 µM (≈ 1.55 µg/mL); in experiment [5], 5 µM (≈ 3.1 µg/mL); in experiment [6], greater than 100 µM. Also, the MIC in experiment [7] is 40 µM (≈ 24.8 µg/mL); in experiment [8], greater than 50 µM.

As for `CO[C@@H]1[C@@H](OC(N)=O)[C@@H](O)[C@H](Oc2ccc3c(O)c(NC(=O)c4ccc(O)c(-c5ccccc5)c4)c(=O)oc3c2C)OC1(C)C` [Compound 83], the MIC is recorded as 26 µM (≈ 16.1 µg/mL) in experiment [1]; greater than 100 µM in experiment [2]; 26 µM (≈ 16.1 µg/mL) in experiment [3]; 2.5 µM (≈ 1.55 µg/mL) in experiment [4]; 3 µM (≈ 1.86 µg/mL) in experiment [5]; greater than 100 µM in experiment [6]. The MIC stood at 40 µM (≈ 24.8 µg/mL) in experiment [7] and 20 µM (≈ 12.4 µg/mL) in experiment [8].

`CO[C@@H]1[C@@H](OC(N)=O)[C@@H](O)[C@H](Oc2ccc3c(O)c(NC(=O)c4cccc(-c5ccc(Br)cc5)c4)c(=O)oc3c2C)OC1(C)C` [Compound 68]: the MIC in experiment [1] (Escherichia coli) is 18 µM (≈ 12.3 µg/mL); in experiment [2] (Klebsiella pneumoniae, 700721), greater than 100 µM; in experiment [3] (Escherichia coli, MC4100, 16 h), 18 µM (≈ 12.3 µg/mL); in experiment [4] (setting [9]), 0.91 µM (≈ 0.622 µg/mL); in experiment [5] (setting [10]), 0.91 µM (≈ 0.622 µg/mL); in experiment [6] (Enterobacter cloacae, 13047) it was greater than 100 µM. Moreover, the MIC in experiment [7] (Escherichia coli, 25922, 16 h) came out at 18 µM (≈ 12.3 µg/mL); in experiment [8] (setting [11]), 18 µM (≈ 12.3 µg/mL).

As for `CO[C@@H]1[C@@H](OC(N)=O)[C@@H](O)[C@H](Oc2ccc3c(O)c(NC(=O)c4cc(O)c(O)c(-c5ccc6ccccc6c5)c4)c(=O)oc3c2C)OC1(C)C` [Compound 96], the MIC in experiment [1] was greater than 300 µM; in experiment [2], 76 µM (≈ 52.2 µg/mL); in experiment [3], greater than 200 µM; in experiment [4] it was 9 µM (≈ 6.18 µg/mL); in experiment [5] it was 9 µM (≈ 6.18 µg/mL); in experiment [6], greater than 100 µM. Moreover, the MIC in experiment [7] stood at 146 µM (≈ 100 µg/mL); in experiment [8], 18 µM (≈ 12.4 µg/mL).

In the case of `COc1ccccc1-c1cccc(C(=O)Nc2c(O)c3ccc(O[C@@H]4OC(C)(C)[C@H](OC)[C@@H](OC(N)=O)[C@H]4O)c(C)c3oc2=O)c1` [Compound 50], the MIC is on record as 40 µM (≈ 25.4 µg/mL) in experiment [1]; greater than 100 µM in experiment [2]; 40 µM (≈ 25.4 µg/mL) in experiment [3]; 10 µM (≈ 6.35 µg/mL) in experiment [4]; 19 µM (≈ 12.1 µg/mL) in experiment [5]; greater than 100 µM in experiment [6]. The values for the MIC in experiment [7] and in experiment [8] were 39 µM (≈ 24.8 µg/mL) and greater than 50 µM, respectively.

With `CO[C@@H]1[C@@H](OC(N)=O)[C@@H](O)[C@H](Oc2ccc3c(O)c(NC(=O)Nc4cccc(-c5ccccc5)c4)c(=O)oc3c2C)OC1(C)C` [Compound 3], the MIC in experiment [1] (Escherichia coli) was greater than 300 µM; in experiment [2] (Klebsiella pneumoniae, 700721), greater than 100 µM; in experiment [3] (Escherichia coli, MC4100, 16 h), greater than 200 µM; in experiment [4] (setting [9]) it was 81 µM (≈ 50.2 µg/mL); in experiment [5] (setting [10]), 81 µM (≈ 50.2 µg/mL); in experiment [6] (Enterobacter cloacae, 13047), greater than 100 µM. Moreover, the MIC in experiment [7] (Escherichia coli, 25922, 16 h) is greater than 200 µM; in experiment [8] (setting [11]), greater than 50 µM.

(Values after US11713335B2, “Aminocoumarin compounds and methods of their use” (President and Fellows of Harvard College, priority 2018, dated 2023).)
